According to ChEMBL document CHEMBL3217588, “Discovery and activity profiling of thailandepsins A through F, potent histone deacetylase inhibitors, from Burkholderia thailandensis E264” (Medchemcomm, 2012):

Key:
[1] = target: T1, Protein deacetylase HDAC6 (Homo sapiens, UniProt Q9UBN7); assay: Inhibition of human recombinant HDAC6 after 1 hr by luminescence assay
T1 sequence (Q9UBN7 whole entry): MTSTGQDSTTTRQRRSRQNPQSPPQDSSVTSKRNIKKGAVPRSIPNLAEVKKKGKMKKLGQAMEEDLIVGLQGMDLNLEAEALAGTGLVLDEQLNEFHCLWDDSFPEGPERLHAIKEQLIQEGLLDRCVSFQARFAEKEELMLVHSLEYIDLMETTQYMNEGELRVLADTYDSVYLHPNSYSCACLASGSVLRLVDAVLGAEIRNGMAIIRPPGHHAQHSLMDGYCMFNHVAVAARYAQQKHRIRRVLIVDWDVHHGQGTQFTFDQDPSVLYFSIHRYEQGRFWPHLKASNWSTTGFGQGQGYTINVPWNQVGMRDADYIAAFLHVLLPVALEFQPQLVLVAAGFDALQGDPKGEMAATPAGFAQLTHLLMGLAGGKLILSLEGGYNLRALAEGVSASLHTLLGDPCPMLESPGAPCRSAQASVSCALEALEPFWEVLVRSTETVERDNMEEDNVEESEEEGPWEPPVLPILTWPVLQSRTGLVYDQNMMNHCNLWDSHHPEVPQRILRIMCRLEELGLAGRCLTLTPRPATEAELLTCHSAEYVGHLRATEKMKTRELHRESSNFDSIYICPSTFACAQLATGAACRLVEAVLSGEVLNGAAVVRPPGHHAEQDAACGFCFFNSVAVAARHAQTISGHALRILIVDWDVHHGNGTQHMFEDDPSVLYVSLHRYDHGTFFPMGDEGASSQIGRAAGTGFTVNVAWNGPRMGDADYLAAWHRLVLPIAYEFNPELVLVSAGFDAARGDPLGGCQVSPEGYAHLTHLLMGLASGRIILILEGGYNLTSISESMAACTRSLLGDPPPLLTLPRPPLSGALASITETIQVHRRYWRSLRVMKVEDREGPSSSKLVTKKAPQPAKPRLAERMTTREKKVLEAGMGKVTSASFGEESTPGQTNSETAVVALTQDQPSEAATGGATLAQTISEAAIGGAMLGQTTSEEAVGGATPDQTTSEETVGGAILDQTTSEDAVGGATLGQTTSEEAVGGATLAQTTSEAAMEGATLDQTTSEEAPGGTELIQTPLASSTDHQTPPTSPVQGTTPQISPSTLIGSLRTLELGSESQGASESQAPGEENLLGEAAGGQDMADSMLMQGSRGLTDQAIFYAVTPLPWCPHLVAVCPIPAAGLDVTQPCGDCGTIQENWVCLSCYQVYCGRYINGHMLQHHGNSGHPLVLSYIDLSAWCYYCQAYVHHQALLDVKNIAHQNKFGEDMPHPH

Histone deacetylase 1 = Histone deacetylase 1 (Homo sapiens, UniProt Q13547); assay: Inhibition of human recombinant HDAC1 after 1 hr by luminescence assay
Histone deacetylase 4 = Histone deacetylase 4 (Homo sapiens, UniProt P56524); assay: Inhibition of human recombinant HDAC4 after 1 hr by luminescence assay
Histone deacetylase 4, sequence (P56524 whole entry): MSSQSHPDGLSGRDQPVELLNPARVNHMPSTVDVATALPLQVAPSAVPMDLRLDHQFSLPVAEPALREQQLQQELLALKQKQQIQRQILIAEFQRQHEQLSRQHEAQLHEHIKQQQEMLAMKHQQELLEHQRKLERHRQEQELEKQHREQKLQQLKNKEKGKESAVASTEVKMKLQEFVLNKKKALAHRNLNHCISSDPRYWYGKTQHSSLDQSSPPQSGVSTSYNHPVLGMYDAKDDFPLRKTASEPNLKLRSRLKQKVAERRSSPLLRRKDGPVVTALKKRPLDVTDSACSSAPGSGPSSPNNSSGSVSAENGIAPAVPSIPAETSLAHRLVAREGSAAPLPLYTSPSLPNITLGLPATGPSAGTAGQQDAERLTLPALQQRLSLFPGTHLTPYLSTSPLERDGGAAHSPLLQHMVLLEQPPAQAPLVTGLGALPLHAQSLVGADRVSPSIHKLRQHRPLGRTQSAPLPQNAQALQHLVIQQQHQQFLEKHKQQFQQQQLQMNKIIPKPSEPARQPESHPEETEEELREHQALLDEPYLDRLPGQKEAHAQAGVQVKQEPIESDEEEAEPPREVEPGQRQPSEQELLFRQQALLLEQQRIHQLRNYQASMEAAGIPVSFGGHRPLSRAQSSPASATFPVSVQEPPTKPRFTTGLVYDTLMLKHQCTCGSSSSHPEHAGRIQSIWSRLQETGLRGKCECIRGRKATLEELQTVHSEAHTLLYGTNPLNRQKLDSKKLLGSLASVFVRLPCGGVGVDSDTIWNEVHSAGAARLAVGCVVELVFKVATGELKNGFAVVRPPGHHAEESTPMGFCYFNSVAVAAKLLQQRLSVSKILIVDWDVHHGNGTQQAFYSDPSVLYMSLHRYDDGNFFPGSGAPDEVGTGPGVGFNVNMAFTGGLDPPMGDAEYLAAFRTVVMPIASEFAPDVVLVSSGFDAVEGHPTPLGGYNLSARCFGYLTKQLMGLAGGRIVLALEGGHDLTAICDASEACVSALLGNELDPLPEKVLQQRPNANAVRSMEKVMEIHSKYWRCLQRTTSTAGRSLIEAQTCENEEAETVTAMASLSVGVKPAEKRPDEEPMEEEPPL

Histone deacetylase 1, sequence (Q13547 whole entry): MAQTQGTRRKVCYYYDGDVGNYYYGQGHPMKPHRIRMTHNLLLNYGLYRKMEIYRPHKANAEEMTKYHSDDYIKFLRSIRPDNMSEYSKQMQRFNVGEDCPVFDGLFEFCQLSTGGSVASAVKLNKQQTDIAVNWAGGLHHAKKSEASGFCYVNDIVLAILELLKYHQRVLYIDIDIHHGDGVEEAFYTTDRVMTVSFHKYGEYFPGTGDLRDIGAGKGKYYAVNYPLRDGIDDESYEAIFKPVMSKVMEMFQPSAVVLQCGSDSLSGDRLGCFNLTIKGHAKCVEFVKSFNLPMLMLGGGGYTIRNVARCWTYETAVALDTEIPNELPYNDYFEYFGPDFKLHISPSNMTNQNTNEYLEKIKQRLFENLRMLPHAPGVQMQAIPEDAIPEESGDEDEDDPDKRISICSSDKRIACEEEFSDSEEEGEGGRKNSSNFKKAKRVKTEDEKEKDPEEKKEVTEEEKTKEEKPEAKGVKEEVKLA

Row | Compound | IC50 [1] | IC50 (Histone deacetylase 1) | IC50 (Histone deacetylase 4)
1 | CSCC[C@H]1NC(=O)C[C@H]2/C=C/CCSSC[C@@H](NC1=O)C(=O)N[C@H](C(C)C)[C@@H](O)CC(=O)O2 | 780 nM | 0.2 nM | 38000 nM
2 | CCCC[C@H]1NC(=O)C[C@H]2/C=C/CCSSC[C@@H](NC1=O)C(=O)N[C@H](C(C)C)[C@@H](O)CC(=O)O2 | 930 nM | 0.48 nM | 47000 nM
3 | CSCC[C@H]1NC(=O)C[C@H]2/C=C/CCSSC[C@@H](NC1=O)C(=O)N[C@H](CC(C)C)[C@@H](O)CC(=O)O2 | 1680 nM | 0.94 nM | 58900 nM
4 | CCCC[C@H]1NC(=O)C[C@H]2/C=C/CCSSC[C@@H](NC1=O)C(=O)N[C@H](CC(C)C)[C@@H](O)CC(=O)O2 | 1920 nM | 2.6 nM | 132000 nM
5 | C/C=C1\NC(=O)[C@H]2CSSCC/C=C/[C@H](CC(=O)N[C@H](C(C)C)C(=O)N2)OC(=O)[C@H](C(C)C)NC1=O [ROMIDEPSIN] |  |  | 8670 nM
6 | CC[C@H](C)[C@H]1NC(=O)[C@H]2CSSCC/C=C/[C@H](CC(=O)N[C@H](CCSC)C(=O)N2)OC(=O)C[C@@H]1O [THAILANDEPSIN A] | 830 nM | 0.28 nM | 37200 nM
7 | CCCC[C@H]1NC(=O)C[C@H]2/C=C/CCSSC[C@@H](NC1=O)C(=O)N[C@H]([C@@H](C)CC)[C@@H](O)CC(=O)O2 [THAILANDEPSIN B] | 1190 nM | 1.2 nM | 57400 nM
